Measurements as given in patent publication US9000039B2, “Sn-1(3) monoacylglycerides and lipid absorption” (Nestec S.A., priority 2011, dated 2015).

Assay: lipid maldigestion or malabsorption animal model (Orlistat): EPA incorporation in red blood cell lipids
Type: in vivo, rats
Protocol: The inventors tested their concept in a lipid maldigestion/malabsorption animal model. The malabsorption condition was obtained using Orlistat®, a well known pancreatic and gastric lipases inhibitor. Animals were fed with long-chain polyunsaturated fatty acid (LC-PUFA) supplements containing mainly eicosapentaenoic (EPA) acid. Fish oil was used as a source of triacylglycerols and different EPA glycerides, for example those of FIG. 1, were evaluated. At different time intervals the fatty acid profile of red blood cell and plasma lipids was assessed. At the end of the experiment, fatty acid profiles of different tissues were determined. […] However, if LC-PUFA are provided as sn-1(3) MAGs the incorporation in tissue is not altered in conditions of lipid malabsorption/maldigestion.
Treatments: Control rats fed fish oil with or without Orlistat and rats fed with MAGs described in FIG. 1. Values are means±SEM (n=6).
The concept was tested in a lipid maldigestion or malabsorption animal model. The maldigestion or malabsorption condition was obtained using Orlistat, a well known pancreatic and gastric lipases inhibitor. Animals were fed during 21 days with long-chain polyunsaturated fatty acid (LC-PUFAs) supplements containing mainly eicosapentaenoic (EPA) acid. Fish oil was used as a source of triacylglycerols and the different EPA glycerides provided in FIG. 1 and purchased from Cognis GmbH, Germany, were evaluated. Orlistat was given at a level sufficient to decrease lipid absorption by 40%. A group receiving fish oil without Orlistat was used as a positive control. At different time intervals (D-3, D7, D14 and D21), fatty acid profile of red blood cell and plasma lipids were performed. At the end of the experiment, fatty acid profiles of different tissues were determined.
The main objective was to follow the level of EPA in red blood cell and plasma lipids. The main comparison evaluated was the difference in EPA level between groups receiving EPA containing MAGs (FIG. 1) in combination with Orlistat and the positive control group […].

Row | Structure (SMILES) | effect on EPA incorporation in red blood cells (group receiving fish oil in combination or not with Orlistat, validates the model) | level of EPA incorporated in red blood cells, compared with the fish oil group (without Orlistat) (rats fed MAGs in combination with Orlistat, day 7, FIG. 2) | level of EPA incorporated in red blood cells, compared with the fish oil+Orlistat group (rats fed MAGs in combination with Orlistat, day 7, all P values lower than 0.05, FIG. 2) | fatty acid absorption compared with fish oil under normal conditions (under maldigestion/malabsorption conditions, FIG. 2)
1 | CCCCCCCCCCC[C@@H](C[C@@H]1OC(=O)[C@H]1CCCCCC)OC(=O)[C@H](CC(C)C)NC=O [Orlistat, reference compound] | decrease EPA incorporation in red blood cells |  |  | 
2 | CC/C=C\C/C=C\C/C=C\C/C=C\C/C=C\CCCC(=O)OCC(O)CO (stereo not shown) [sn-1(3) monoeicosapentaenoylglycerol, sn-1(3)-monoeicosapentaenoylglycerol] |  | even higher than the fish oil group | statistically higher | better absorbed
